Test systems include OVCAR-4; UACC-62; PC-3; HL-60; NCI-H522; MCF7; OVCAR-3; SNB-19; A498; BT-549; CCRF-CEM; MOLT-4; KM12; OVCAR-5; M14; COLO 205; U-251; SNB-75; T47D.
Experiment in all cases: growth of human tumour cells (NCI), 48 h

SMILES strings stand for the structures.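 These data come from cells grown in 96-well plates and exposed to compound for 48 hours at five concentrations. Here, GI50 denotes the concentration required for 50% inhibition of growth.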 Calls of active or inactive are those of the source. Rule as the data show it: active = GI50 up to about 1.1 µM and inactive = higher. A value given as a limit tells only on which side of the number the result lay.

In the case of `O=C1N/N=C\c2ccc(cc2)OCc2cccc(n2)COc2ccc(cc2)/C=N\NC1=O`, the GI50 in the experiment on OVCAR-4, in the experiment with UACC-62, in the experiment on PC-3, with HL-60, with NCI-H522 and in the experiment with MCF7 was > 25 µM (inactive) throughout. Besides, the GI50 in the experiment on OVCAR-3, in the experiment on SNB-19, in the experiment on A498, in the experiment on BT-549, in the experiment with CCRF-CEM and in the experiment with MOLT-4 was > 25 µM (inactive) each time. For the same compound, the GI50 with KM12 was > 25 µM (inactive); in the experiment on OVCAR-5 it was > 25 µM (inactive); in the experiment with M14 it was > 25 µM (inactive); in the experiment on COLO 205 it was > 25 µM (inactive); in the experiment on U-251, > 25 µM (inactive); in the experiment on SNB-75 it was 14.6 µM (inactive).
On to `COC(=O)[C@H](CCSC)NC(=O)N[C@H](C)c1ccccc1`, for which the GI50 with OVCAR-4 is > 100 µM (inactive); with UACC-62, > 100 µM (inactive); with PC-3, > 100 µM (inactive); in the experiment with HL-60, > 100 µM (inactive); in the experiment on NCI-H522, 26.1 µM (inactive); in the experiment on MCF7, > 100 µM (inactive). Further, the GI50 in the experiment with OVCAR-3, in the experiment on SNB-19, in the experiment with A498, in the experiment on BT-549, in the experiment with CCRF-CEM and in the experiment with MOLT-4 was > 100 µM (inactive) in each case. In addition, the GI50 with KM12, in the experiment on OVCAR-5, in the experiment on M14, in the experiment on COLO 205, in the experiment with U-251 and in the experiment with SNB-75 was > 100 µM (inactive) throughout.
Consider `O=C(CSCC(=O)N/N=C\c1ccc(-c2ccccc2)cc1)N/N=C\c1ccc(-c2ccccc2)cc1`, for which the GI50 is 20.7 µM (inactive) with OVCAR-4; 22.9 µM (inactive) with UACC-62; 30.4 µM (inactive) with PC-3; 13.5 µM (inactive) in the experiment on NCI-H522; 36.1 µM (inactive) in the experiment on MCF7; 16.1 µM (inactive) in the experiment with OVCAR-3. In addition, the GI50 in the experiment on T47D was 34.9 µM (inactive); in the experiment with SNB-19, 26.2 µM (inactive); in the experiment on BT-549, 20.8 µM (inactive); in the experiment with MOLT-4, 25.3 µM (inactive); in the experiment on KM12, 17.9 µM (inactive); in the experiment with OVCAR-5, 29.6 µM (inactive). In addition, the GI50 was 23.8 µM (inactive) in the experiment with M14, 13.6 µM (inactive) with COLO 205, 17.7 µM (inactive) with U-251 and 16.3 µM (inactive) in the experiment with SNB-75.
In the case of `CCCCC1(NN=C2CCCCC2)C(=O)N(c2ccccc2)N(c2ccccc2)C1=O`, the GI50 is > 100 µM (inactive) with OVCAR-4; > 100 µM (inactive) with UACC-62; > 100 µM (inactive) in the experiment on PC-3; 18.1 µM (inactive) in the experiment with HL-60; 83 µM (inactive) in the experiment on NCI-H522; > 100 µM (inactive) with MCF7. Moreover, the GI50 is > 100 µM (inactive) in the experiment on OVCAR-3; > 100 µM (inactive) in the experiment with T47D; > 100 µM (inactive) with SNB-19; > 100 µM (inactive) in the experiment on BT-549; 21.6 µM (inactive) in the experiment with CCRF-CEM; 26.2 µM (inactive) in the experiment with MOLT-4. The GI50 in the experiment with KM12, with M14, in the experiment on COLO 205, in the experiment on U-251 and in the experiment on SNB-75 was > 100 µM (inactive) each time.
As to `CC[C@@]1(O)C(=O)OCc2c1cc1n(c2=O)Cc2c-1nc1ccccc1c2/C=N\NC(=O)C(N)Cc1ccc(O)cc1` (some centres undefined), the GI50 in the experiment on OVCAR-4 was 6.61 µM (inactive); in the experiment with UACC-62, 0.209 µM (active); in the experiment with HL-60, 0.146 µM (active); with NCI-H522, 0.998 µM (active); in the experiment on MCF7, 0.367 µM (active); in the experiment on T47D, 0.285 µM (active). Also, the GI50 in the experiment on SNB-19 was 0.267 µM (active); in the experiment with A498, 0.813 µM (active); in the experiment on BT-549 it was 1.9 µM (inactive); with CCRF-CEM, < 0.0236 µM (active); in the experiment on MOLT-4, 0.0658 µM (active); in the experiment on KM12, 3.37 µM (inactive). The GI50 is 0.587 µM (active) in the experiment with M14, 12.6 µM (inactive) in the experiment with COLO 205, 0.248 µM (active) in the experiment on U-251 and 0.415 µM (active) in the experiment with SNB-75.
Regarding `CSCCCNC(=O)[C@H](CSC)NC(=O)c1csc(CCNC(=O)[C@@H](NSc2ccccc2[N+](=O)[O-])C(C)O)n1` (some centres undefined), the GI50 in the experiment on OVCAR-4, with UACC-62, in the experiment with PC-3, in the experiment with HL-60, with NCI-H522 and in the experiment on MCF7 was > 100 µM (inactive) throughout. Besides, the GI50 in the experiment with OVCAR-3, in the experiment with SNB-19, in the experiment on A498, in the experiment on BT-549, in the experiment with CCRF-CEM and with MOLT-4 was > 100 µM (inactive) each time. Further, the GI50 was > 100 µM (inactive) in the experiment with KM12; > 100 µM (inactive) in the experiment on OVCAR-5; > 100 µM (inactive) with M14; > 100 µM (inactive) in the experiment with COLO 205; > 100 µM (inactive) with U-251; 28.2 µM (inactive) in the experiment on SNB-75.
Consider `N#Cc1c(-c2ccc(F)cc2)c(-c2ccc(F)cc2)nn(CCO)c1=O`, for which the GI50 in the experiment on OVCAR-4 was 1.32 µM (inactive); with UACC-62 it was 0.14 µM (active); in the experiment on PC-3 it was 0.416 µM (active); in the experiment on HL-60, 0.091 µM (active); in the experiment on MCF7, 3.16 µM (inactive); in the experiment on OVCAR-3, 0.242 µM (active). For the same compound, the GI50 with T47D was 2.33 µM (inactive); in the experiment with SNB-19 it was 4.9 µM (inactive); in the experiment on BT-549, 0.879 µM (active); in the experiment with CCRF-CEM it was 0.564 µM (active); in the experiment on MOLT-4 it was 0.242 µM (active); in the experiment on KM12, 0.126 µM (active). Further, the GI50 in the experiment on OVCAR-5 was 1.82 µM (inactive); in the experiment with COLO 205, 0.24 µM (active); with U-251, 0.178 µM (active); in the experiment with SNB-75, 0.183 µM (active).
As to `O=c1oc2ccccc2c(O)c1C1c2c(c3ccccc3oc2=O)Oc2c1c(=O)oc1ccccc21`, the GI50 with OVCAR-4 was 32.9 µM (inactive); in the experiment with UACC-62, 21.4 µM (inactive); in the experiment on PC-3, 50.6 µM (inactive); with NCI-H522, 39 µM (inactive); in the experiment with OVCAR-3, 61.8 µM (inactive); with T47D, 38.4 µM (inactive). Further, the GI50 is 48.5 µM (inactive) in the experiment on SNB-19; 49.5 µM (inactive) in the experiment on A498; 27.5 µM (inactive) in the experiment with BT-549; 36.5 µM (inactive) with CCRF-CEM; 47.5 µM (inactive) with MOLT-4; 26.4 µM (inactive) with KM12. The results for the GI50 with COLO 205, in the experiment with U-251 and with SNB-75 were 42.3 µM (inactive), 38.1 µM (inactive) and 57.1 µM (inactive), respectively.

(Values after ChEMBL document CHEMBL1201862, “PubChem BioAssay data set” (2004).)
